Test results: paper PMC7211195 (Investigational New Drugs, 2019)
“And” between values parts separate entries of the source, which are not always exact repeats. Equal entries are not always repeated.

Experiment: Lapatinib pharmacokinetics and uptake in rat brain tissue (BT);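 on BT corr (BT homogenate corrected), single rat: brain concentration corrected for residual brain blood by the Fridén method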;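 on BT corr (BT homogenate), single rat: brain concentration corrected for residual brain blood by the Fridén method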
Assay type: in vivo, rats
Conditions: for BT corr (BT homogenate), S / BT corr (BT homogenate), single rat: lapatinib 100 mg/kg + elacridar; for BT corr (BT homogenate corrected), single rat: lapatinib p.o. 100 mg/kg alone, 100 mg/kg
Method: This study was conducted on rats, which are a promising model to predict P-gp-based drug-drug interactions at the human BBB [15]. The animals were allowed to acclimate for one week before the beginning of the experiments. Adult male Wistar-strain rats (weight 470–525 g) were used in the study. The animals were maintained under standard breeding conditions with a 12/12 h light-dark cycle (lights on at 6.00 a.m., lights off at 6.00 p.m.) at constant room temperature (23 ± 2 °C), relative humidity (55 ± 10%) and ad libitum access to food and water. The experimental protocol for this study was reviewed and approved by the Local Ethics Committee. To obtain consistent data, the study was based on the required minimum number of animals and observation time. […] Three rats were used at each time point (n = 3). In total, the research was conducted on 66 animals (n = 33 in the experimental group and n = 33 in the control group).
Elacridar was freshly dissolved in a vehicle at an initial concentration of 20 mg/mL. […] A volume of 80 μL of blood was collected from each rat by cutting off a piece of its tail. The blood samples were collected into heparinized test tubes at the following time points: […], and they were immediately centrifuged at 2880 g for 10 min at 4 °C. The anaesthetized rats (anaesthetized by intramuscular administration of 50 mg/kg ketamine and 10 mg/kg xylazine) were prepared for cisterna magna puncture. The hair over the puncture was removed and the skin was disinfected with alcohol. The animals were placed in a recumbent position with an elevated rear part of the body. The animals’ heads were slightly flexed and immobilized with the operator’s left hand. The space between the occiput rostrally and the atlas (C1) of the spinal column caudally was gently palpated with the left thumb. A 0.7 × 20 G needle with polyethylene tubing (Terumo Poland, Warsaw, Poland) was gently inserted at an approximate angle of 80–90° through the skin with the operator’s right hand into the midsagittal region. The moment that dura mater perforation was perceptible, a small amount of CSF was found in the needle tubing. To sample additional CSF, a 1 mL insulin syringe (Becton Dickinson, Warsaw, Poland) was used to collect 80–120 μL of CSF by very gentle aspiration. Only clear CSF was collected for further analysis. […] The animals’ brains were immediately dissected, washed in 0.9% NaCl and divided along the longitudinal axis. One of the brain hemispheres was again rinsed three times with 5 mL of 0.9% NaCl, weighed and homogenized with 0.9% NaCl (4 mL per 1 g of BT) in an Ultra-Turrax homogenizer (Witko, Łódź, Poland). The homogenate was then centrifuged at 4500 g for 10 min. All samples of the rat BP, CSF, and BT homogenate supernatant were stored at −80 °C until analysis.
The chromatographic analysis was conducted using a 1260 Infinity system (Agilent Technologies, Santa Clara, USA) equipped with a Kinetex® C18 column (50 × 4.6 mm, 2.6 μm, Phenomenex, Torrance, USA), which was maintained at 35 °C. The mobile phase consisted of 0.1% formic acid (v/v) in water with 5 mM ammonium formate (solvent A) and acetonitrile with 10% phase A (v/v, solvent B). The analyte and internal standard (IS, erlotinib) were eluted using a gradient run of 10 min as follows: 95% A at 0–2 min; 95%–5% A at 2–4 min; 5% A at 4–5 min; 5%–95% A at 5–6 min; 95% A at 6–10 min. The flow rate and injection volume were set at 0.7 mL/min and 10 μL, respectively. The needle was washed for 30 s in a mixture of acetonitrile, methanol, isopropanol, water, and formic acid (50:20:15:15:0.25, v/v/v/v/v).

AUC0-∞ increase by elacridar (BT): 1.9 times
Cmax increase in IE+L vs control (BT): 1.55 fold and 1.5 fold
Kp decrease in IL+E group vs control (BT): 25%
t0.5 longer in the presence of elacridar (BT): 2.5 times
AUC0-t increased in IE+L (BT, IE+L vs IIL group): 92.6%
AUC0-∞ increase with elacridar (BT, IE+L vs IIL group): 86.5%
Cmax increase with elacridar (BT, IE+L vs IIL group): 54.7%
AUMC0-t (brain tissue, lapatinib 100 mg/kg oral + 5 mg/kg elacridar (IE+L), first AUMC0-t line (r32)): 16,040.19 ± 2981.02 ng × h^2/mL
AUMC0-t (brain tissue, lapatinib 100 mg/kg oral + 5 mg/kg elacridar (IE+L), second AUMC0-t line (r33)): 57,148.33 ± 29,162.29 ng × h^2/mL
MRT0-t (brain tissue, lapatinib 100 mg/kg oral alone (IIL)): 5.73 ± 0.06 h
AUMC0-t (brain tissue, lapatinib 100 mg/kg oral alone (IIL), first AUMC0-t line (r32)): 4792.63 ± 173.92 ng × h^2/mL
AUMC0-t (brain tissue, lapatinib 100 mg/kg oral alone (IIL), second AUMC0-t line (r33)): 17,455.77 ± 17,542.73 ng × h^2/mL
BT corr (BT homogenate), S (0.25 h): 33.08 ng/mL
BT corr (BT homogenate), single rat (0.25 h): 35.46 ng/mL
BT corr (BT homogenate), single rat (0.25 h, listed as Lapatinib): 35.46 ng/mL
BT corr (BT homogenate), S (0.5 h): 43.57 ng/mL
BT corr (BT homogenate), single rat (0.5 h): 41.98 ng/mL
BT corr (BT homogenate), single rat (0.5 h, listed as Lapatinib): 41.98 ng/mL
BT corr (BT homogenate), single rat (2 h): 39.78 ng/mL and 102.9 ng/mL
BT corr (BT homogenate), single rat (2 h, listed as Lapatinib): 39.78 ng/mL and 102.90 ng/mL
BT corr (BT homogenate), S (3 h): 197.6723 ng/mL
BT corr (BT homogenate), single rat (3 h): 170.09 ng/mL and 225.26 ng/mL
BT corr (BT homogenate), single rat (3 h, listed as Lapatinib): 225.26 ng/mL
BT corr (BT homogenate), S (4 h): 85.05 ng/mL
BT corr (BT homogenate), single rat (4 h): 91.94 ng/mL
BT corr (BT homogenate), S (6 h): 85.7722 ng/mL
BT corr (BT homogenate), single rat (6 h): 84.2 ng/mL
BT corr (BT homogenate), single rat (6 h, listed as Lapatinib): 84.20 ng/mL
BT corr (BT homogenate), S (8 h): 85.02 ng/mL
BT corr (BT homogenate), single rat (12 h): 45.12 ng/mL
BT corr (BT homogenate), single rat (12 h, listed as Lapatinib): 45.12 ng/mL
BT corr (BT homogenate), S (24 h): 44.69 ng/mL
BT corr (BT homogenate), single rat (24 h): 36.68 ng/mL
BT corr (BT homogenate), single rat (24 h, listed as Lapatinib): 36.68 ng/mL
BT corr (BT homogenate corrected), single rat (0.25 h): 33.26 ng/mL
BT corr (BT homogenate corrected), single rat (0.25 h, listed as Lapatinib): 33.26 ng/mL
BT corr (BT homogenate corrected), single rat (0.5 h): 39.02 ng/mL
BT corr (BT homogenate corrected), single rat (0.5 h, listed as Lapatinib): 39.02 ng/mL
Structure (SMILES): CS(=O)(=O)CCNCc1ccc(-c2ccc3ncnc(Nc4ccc(OCc5cccc(F)c5)c(Cl)c4)c3c2)o1 [lapatinib, N-{3-Chloro-4-[(3-fluorobenzyl)oxy]phenyl}-6-[5-({[2-(methylsulfonyl)ethyl]amino}methyl)-2-furyl]-4-quinazolinamine]
